Laboratory results: patent US9732063B2, “Kinase inhibitors” (RESPIVERT LIMITED, priority 2012, dated 2017)

Legend:
GSK3α = GSK3α (Homo sapiens (Human), UniProt P49840); experiment: GSK 3α enzyme inhibition (Z-LYTE FRET, Method 2); assay type: biochemical
Experimental: The enzyme inhibitory activities of compounds disclosed herein are determined by FRET using synthetic peptides labelled with both donor and acceptor fluorophores (Z-LYTE, Invitrogen Ltd., Paisley, UK).
The inhibitory activities of compounds of the invention against the GSK 3α enzyme isoform (Invitrogen), are evaluated by determining the level of activation/phosphorylation of the target peptide. The GSK3-α protein (500 ng/mL, 2.5 μL) is mixed with the test compound (2.5 μL at either 4 μg/mL, 0.4 μg/mL, 0.04 μg/mL, or 0.004 μg/mL) for 2 hr at RT. The FRET peptide (8 μM, 2.5 μL), which is a phosphorylation target for GSK3α, and ATP (40 μM, 2.5 μL) are then added to the enzyme/compound mixture and the resulting mixture incubated for 1 hr. Development reagent (protease, 5 μL) is added for 1 hr prior to detection in a fluorescence microplate reader (Varioskan® Flash, ThermoFisher Scientific).
In all cases, the site-specific protease cleaves non-phosphorylated peptide only and eliminates the FRET signal. Phosphorylation levels of each reaction are calculated using the ratio of coumarin emission (donor) over fluorescein emission (acceptor), for which high ratios indicate high phosphorylation and low ratios indicate low phosphorylation levels.

PBMCs [1] = experiment: LPS-induced TNFα/IL-8 release in PBMC cells; assay type: cell-based; conditions: Homo sapiens, read-out: IC50 Values for Inhibition of Cytokine Release PBMCs IL-8
Experimental: Peripheral blood mononuclear cells (PBMCs) from healthy subjects are separated from whole blood using a density gradient (Lymphoprep, Axis-Shield Healthcare). The PBMCs are seeded in 96 well plates and treated with compounds at the desired concentration for 2 hours before addition of 1 ng/mL LPS (Escherichia Coli O111:B4 from Sigma Aldrich) for 24 hours under normal tissue culture conditions (37° C., 5% CO2). The supernatant is harvested for determination of IL-8 and TN Fa concentrations by sandwich ELISA (Duo-set, R&D systems) and read on the fluorescence microplate reader (Varioskan® Flash, ThermoFisher Scientific).

PBMCs [2] = experiment: IL-2 and IFN gamma release in CD3/CD28 stimulated PBMC cells; assay type: cell-based; conditions: Homo sapiens
Experimental: PBMCs from healthy subjects are separated from whole blood using a density gradient (Lymphoprep, Axis-Shield Healthcare). Cells are added to a 96 well plate pre-coated with a mixture of CD3/CD38 monoclonal antibodies (0.3 μg/mL eBioscience and 3 μg/mL BD Pharmingen respectively). Compound at the desired concentration is then added to the wells and the plate left for 3 days under normal tissue culture conditions. Supernatants are harvested and IL-2 and IFN gamma release determined by Sandwich ELISA (Duo-set, R&D System). The IC50 is determined from the dose response curve.

Chain of GSK3α (P49840 whole entry): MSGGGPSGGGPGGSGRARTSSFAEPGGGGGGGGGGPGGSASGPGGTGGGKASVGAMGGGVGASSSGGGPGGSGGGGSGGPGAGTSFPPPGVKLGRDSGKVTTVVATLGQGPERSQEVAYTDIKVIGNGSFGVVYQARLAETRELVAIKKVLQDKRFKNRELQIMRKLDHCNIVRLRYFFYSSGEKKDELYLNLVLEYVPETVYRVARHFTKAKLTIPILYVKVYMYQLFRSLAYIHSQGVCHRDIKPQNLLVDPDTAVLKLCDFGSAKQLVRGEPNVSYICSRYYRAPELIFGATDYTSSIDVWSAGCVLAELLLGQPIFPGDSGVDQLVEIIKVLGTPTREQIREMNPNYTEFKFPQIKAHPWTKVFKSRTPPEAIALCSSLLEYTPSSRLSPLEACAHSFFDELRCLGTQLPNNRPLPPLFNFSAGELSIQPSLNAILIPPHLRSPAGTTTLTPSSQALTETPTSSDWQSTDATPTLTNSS

| Compound | IC50 (GSK3α) [nM] | IC50 (PBMCs [1]) [nM] | IC50 (PBMCs [2]; read-out: IC50 Values for Inhibition of Cytokine Release PBMCs IFNγ) [nM] | IC50 (PBMCs [2]; read-out: IC50 Values for Inhibition of Cytokine Release PBMCs IL-2) [nM] | IC50 (PBMCs [1]; LPS-stimulated PBMCs) [nM] |
| --- | --- | --- | --- | --- | --- |
| Cc1ccc(-n2nc(C(C)C)cc2NC(=O)Nc2ccc(Oc3ccnc(Nc4cccc(S(=O)(=O)C5CC5)c4)n3)c(Cl)c2Cl)cc1 [Example 24, 1-(2,3-Dichloro-4-((2-((3-(cyclopropylsulfonyl)phenyl)amino)pyrimidin-4-yl)oxy)phenyl)-3-(3-isopropyl-1-(p-tolyl)-1H-pyrazol-5-yl)urea] | 117 | 3.8 |  |  |  |
| COc1cc(Nc2nccc(Oc3ccc(NC(=O)Nc4cc(C(C)(C)C)nn4-c4ccc(C)cc4)c(Cl)c3Cl)n2)cc(OCCN2CCOCC2)c1 [Example 59, 1-(3-(tert-Butyl)-1-(p-tolyl)-1H-pyrazol-5-yl)-3-(2,3-dichloro-4-((2-((3-methoxy-5-(2-morpholinoethoxy)phenyl)amino)pyrimidin-4-yl)oxy)phenyl)urea] |  | 4.2 |  |  |  |
| COCCOCCOCCOc1cc(Nc2nccc(Oc3ccc(NC(=O)Nc4cc(C(C)C)nn4-c4ccc(C)cc4)c4ncccc34)n2)cc(OC)c1 [Example 27, 1-(3-Isopropyl-1-(P-tolyl)-1H-pyrazol-5-yl)-3-(5-((2-((3-methoxy-5-(2-(2-(2-methoxy-ethoxy)ethoxy)ethoxy)phenyl)amino)pyrimidin-4-yl)oxy)quinolin-8-yl)urea] | > 10000 | 24.8 |  |  |  |
| COc1ccc(-n2nc(C(C)(C)C)cc2NC(=O)Nc2ccc(Oc3ccnc(Nc4cccc([S+]([O-])C5CC5)c4)n3)c3ccccc23)cn1 (stereo not shown) [Example 7, 1-(3-(tert-Butyl)-1-(6-methoxypyridin-3-yl)-1H-pyrazol-5-yl)-3-(4-((2-((3-(cyclopropyl-sulfinyl)phenyl)amino)pyrimidin-4-yl)oxy)naphthalen-1-yl)urea] | 125 | 0.9 |  |  |  |
| COc1cc(Nc2nccc(Oc3ccc(NC(=O)Nc4cc(C(C)C)nn4-c4ccc(C)cc4)c(F)c3F)n2)cc(OCCN2CCOCC2)c1 [Example 25, 1-(2,3-Difluoro-4-((2-((3-methoxy-5-(2-morpholinoethoxy)phenyl)amino)pyrimidin-4-yl)oxy)phenyl)-3-(3-isopropyl-1-(p-tolyl)-1H-pyrazol-5-yl)urea] | 804 | 2 |  |  |  |
| COCCOCCOCCOc1cc(C#N)cc(Nc2nccc(Oc3ccc(NC(=O)Nc4cc(C(C)(C)C)nn4-c4ccc(C)cc4)c4ccccc34)n2)c1 [Example 52, 1-(3-(tert-Butyl)-1-(P-tolyl)-1H-pyrazol-5-yl)-3-(4-((2-((3-cyano-5-(2-(2-(2-methoxyethoxy)-ethoxy)ethoxy)phenyl)amino)pyrimidin-4-yl)oxy)naphthalen-1-yl)urea] | > 13000 | 15 |  |  |  |
| COCCOCCOCCS(=O)(=O)c1cc(Nc2nccc(Oc3ccc(NC(=O)Nc4cc(C(C)C)nn4-c4ccc(C)cc4)c4ccccc34)n2)cc(OC)c1 [Example 36, 1-(3-Isopropyl-1-(p-tolyl)-1H-pyrazol-5-yl)-3-(4-((2-((3-methoxy-5-((2-(2-(2-methoxy-ethoxy)ethoxy)ethyl)sulfonyl)phenyl)amino)pyrimidin-4-yl)oxy)naphthalen-1-yl)urea] | 596 | 2.5 |  |  |  |
| COCCOCCOCCN(C)c1cc(Nc2nccc(Oc3ccc(NC(=O)Nc4cc(C(C)(C)C)nn4-c4ccc(C)cc4)c4ccccc34)n2)cc(OC)c1 [Example 67, 1-(3-(tert-Butyl)-1-(p-tolyl)-1H-pyrazol-5-yl)-3-(4-((2-((3-methoxy-5-((2-(2-(2-methoxyethoxy)ethoxy)ethyl)(methyl)amino)phenyl)amino)pyrimidin-4-yl)oxy)naphthalen-1-yl)urea] |  | 3.5 |  |  |  |
| COc1cc(Nc2nccc(Oc3ccc(NC(=O)Nc4cc(C(C)(C)C)nn4-c4ccc(C)cc4)c(Cl)c3Cl)n2)cc(S(=O)(=O)C2CC2)c1 [Example 68, 1-(3-(tert-Butyl)-1-(p-tolyl)-1H-pyrazol-5-yl)-3-(2,3-dichloro-4-((2-((3-(cyclopropylsulfonyl)-5-methoxyphenyl)amino)pyrimidin-4-yl)oxy)phenyl)urea] |  | 5.2 |  |  |  |
| COCCOCCOCCSc1cc(Nc2nccc(Oc3ccc(NC(=O)Nc4cc(C(C)C)nn4-c4ccc(C)cc4)c4ccccc34)n2)cc(OC)c1 [Example 31, 1-(3-Isopropyl-1-(P-tolyl)-1H-pyrazol-5-yl)-3-(4-((2-((3-methoxy-5-((2-(2-(2-methoxy-ethoxy)ethoxy)ethyl)thio)phenyl)amino)pyrimidin-4-yl)oxy)naphthalen-1-yl)urea] | > 10000 | 4.4 |  |  |  |
| Cc1ccc(-n2nc(C(C)(C)C)cc2NC(=O)Nc2ccc(Oc3ccnc(Nc4cccc(S(=O)(=O)C5CC5)c4)n3)c3ccccc23)cc1 [Example 46, 1-(3-(tert-Butyl)-1-(p-tolyl)-1H-pyrazol-5-yl)-3-(4-((2-((3-(cyclopropylsulfonyl)phenyl)-amino)pyrimidin-4-yl)oxy)naphthalen-1-yl)urea] | 172 | 2.7 |  |  |  |
| COc1ccc(-n2nc(C(C)(C)C)cc2NC(=O)Nc2ccc(Oc3ccnc(Nc4cccc(SCCO)c4)n3)c3ccccc23)cn1 [Example 6] | 501 | 1.6 |  |  |  |
| COc1ccc(-n2nc(C(C)(C)C)cc2NC(=O)Nc2ccc(Oc3ccnc(Nc4cccc(OC(N)=O)c4)n3)c3ccccc23)cn1 [Example 5, 3-(4-((4-(3-(3-(tert-Butyl)-1-(6-methoxypyridin-3-yl)-1H-pyrazol-5-yl)ureido)naphthalen-1-yl)oxy)pyrimidin-2-yl)amino)phenyl carbamate] | 306 | 1.9 |  |  |  |
| C#Cc1cc(Nc2nccc(Oc3ccc(NC(=O)Nc4cc(C(C)(C)C)nn4-c4ccc(C)cc4)c4ccccc34)n2)cc(OCCOCCOCCOC)c1 [Example 54, 1-(3-(tert-Butyl)-1-(p-tolyl)-1H-pyrazol-5-yl)-3-(4-((2-((3-ethynyl-5-(2-(2-(2-methoxyethoxy)ethoxy)ethoxy)phenyl)amino)pyrimidin-4-yl)oxy)naphthalen-1-yl)urea] | > 10000 | 4.5 |  |  |  |
| COCCOCCOCCOc1cc(Nc2nccc(Oc3ccc(NC(=O)Nc4cc(C(C)C)nn4-c4ccc(C)cc4)c4ccccc34)n2)cc(C(F)(F)F)c1 [Example 34] | > 10000 | 12.2 |  |  |  |
| COc1ccc(-n2nc(C(C)(C)C)cc2NC(=O)Nc2ccc(Oc3ccnc(Nc4cccc(S(=O)(=O)C5CC5)c4)n3)c3ccccc23)cn1 [Example 8, 1-(3-(tert-Butyl)-1-(6-methoxypyridin-3-yl)-1H-pyrazol-5-yl)-3-(4-((2-((3-(cyclopropyl-sulfonyl)phenyl)amino)pyrimidin-4-yl)oxy)naphthalen-1-yl)urea] | 258 | 1 |  |  |  |
| COc1cc(N=S(C)(C)=O)cc(Nc2nccc(Oc3ccc(NC(=O)Nc4cc(C(C)C)nn4-c4ccc(C)cc4)c(Cl)c3Cl)n2)c1 [Example 26] | 426 | 3.9 |  |  |  |
| COc1cc(Nc2nccc(Oc3ccc(NC(=O)Nc4cc(C(C)(C)C)nn4-c4ccc(C)cc4)c4ccccc34)n2)cc(OCCOCCOCCN2CCOCC2)c1 [Example 58, 1-(3-(tert-Butyl)-1-(p-tolyl)-1H-pyrazol-5-yl)-3-(4-((2-((3-methoxy-5-(2-(2-(2-morpholinoethoxy)ethoxy)ethoxy)phenyl)amino)pyrimidin-4-yl)oxy)naphthalen-1-yl)urea] |  |  | 1.3 | 39.6 |  |
| COCCOCCOCCOc1cc(Nc2nccc(Oc3ccc(NC(=O)Nc4cc(C(C)C)nn4-c4ccc(C)cc4)c4ccccc34)n2)cc(OC(F)(F)F)c1 [Example 33, 1-(3-Isopropyl-1-(p-tolyl)-1H-pyrazol-5-yl)-3-(4-((2-((3-(2-(2-(2-methoxyethoxyl)ethoxy)-ethoxy)-5-(trifluoromethoxy)phenyl)amino)pyrimidin-4-yl)oxy)naphthalen-1-yl)urea] | > 10000 | 8.7 |  |  |  |
| COc1cc(N=S(C)(C)=O)cc(Nc2nccc(Oc3ccc(NC(=O)Nc4cc(C(C)C)nn4-c4ccc(C)cc4)c4ccccc34)n2)c1 [Example 16, 3-(5-Methoxy((4-((4-(3-(3-isopropyl-1-(p-tolyl)-1H-pyrazol-5-yl)ureido)naphthalen-1-yl)-oxy)pyrimidin-2-yl)amino))phenyl-S,S-dimethyl-N-phenyl sulfoximine] |  |  |  |  | 1.7 |
| COCCOCCOCCOc1cccc(Nc2nccc(Oc3ccc(NC(=O)Nc4cc(C(C)(C)C)nn4-c4ccc(OC)nc4)c4ccccc34)n2)c1 [Example 4, 1-(3-(tert-Butyl)-1-(6-methoxypyridin-3-yl)-1H-pyrazol-5-yl)-3-(4-((2-((3-(2-(2-(2-methoxy-ethoxy)ethoxy)ethoxy)phenyl)amino)pyrimidin-4-yl)oxy)naphthalen-1-yl)urea] |  | 1.7 |  |  |  |
